We go through one molecule from article PMC8086025, “A benzopyran with antiarrhythmic activity is an inhibitor of Kir3.1-containing potassium channels” (The Journal of Biological Chemistry, 2021).

Data set [1] has as its system IKACh. In words: In vivo ECG, carbachol-induced heart rate slowing in anesthetized mice. The conditions noted are these: 40 μl of 240 μM via jugular vein. As for the experimental part:
We tested the in vivo effects of BP-G1 versus those of BP-G1(SR) on heart rate in anesthetized adult mice (Fig. 8). ECG was continuously recorded. Panel A is the ECG showing that after carbachol (300 μl of 200 μM) was administered, i.p. (red mark), the heart decelerated, with a visible RR prolongation. About 10 min after carbachol injection, BP-G1 was delivered via the jugular vein (40 μl of 240 μM) (green mark). Within 5 min, there was a reversal of carbachol’s effects on the heart rate. Panel B is a control mouse showing heart rate slowing after carbachol administration (red mark).
Mice were anesthetized (1.5% isofluorane), and a 1.2 French octapolar catheter (Millar) with a drug delivery port was placed transvenously, through the jugular vein, into the right atrium. Continuous ECG was recorded using the Animal Bio Amp and PowerLab 4/35 Advanced Instruments apparatus. […] Saline control at the same volume was performed. Results are averages ±SD.

The nature of data set [2]: Plasma protein binding, dog. The format is in vitro ADME. The conditions noted are these: read-out: Dog PPB (converted).
Data set [3] addresses α1 adrenergic receptor. As to the kind of experiment: Radioligand binding, [3H]prazosin. Details: species or system rat.
In data set [4] the target is T1, Kir3.1/4 channel (Homo sapiens, UniProt P48544+P48549).
T1 sequence (P48549 1-501): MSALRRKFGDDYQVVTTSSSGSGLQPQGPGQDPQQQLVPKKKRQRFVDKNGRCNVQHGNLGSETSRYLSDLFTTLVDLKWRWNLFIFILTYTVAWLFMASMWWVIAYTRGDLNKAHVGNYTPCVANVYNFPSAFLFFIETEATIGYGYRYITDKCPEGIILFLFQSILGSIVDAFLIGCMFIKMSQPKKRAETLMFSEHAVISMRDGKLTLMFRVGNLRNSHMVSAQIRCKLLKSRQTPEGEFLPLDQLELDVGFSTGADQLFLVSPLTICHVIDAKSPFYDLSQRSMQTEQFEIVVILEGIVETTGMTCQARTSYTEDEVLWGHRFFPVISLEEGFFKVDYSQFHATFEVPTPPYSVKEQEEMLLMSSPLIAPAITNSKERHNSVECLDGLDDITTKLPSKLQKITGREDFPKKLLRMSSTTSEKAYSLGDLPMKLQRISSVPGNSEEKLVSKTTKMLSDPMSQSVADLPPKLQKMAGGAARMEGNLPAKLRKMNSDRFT
T1 sequence (P48544 1-419): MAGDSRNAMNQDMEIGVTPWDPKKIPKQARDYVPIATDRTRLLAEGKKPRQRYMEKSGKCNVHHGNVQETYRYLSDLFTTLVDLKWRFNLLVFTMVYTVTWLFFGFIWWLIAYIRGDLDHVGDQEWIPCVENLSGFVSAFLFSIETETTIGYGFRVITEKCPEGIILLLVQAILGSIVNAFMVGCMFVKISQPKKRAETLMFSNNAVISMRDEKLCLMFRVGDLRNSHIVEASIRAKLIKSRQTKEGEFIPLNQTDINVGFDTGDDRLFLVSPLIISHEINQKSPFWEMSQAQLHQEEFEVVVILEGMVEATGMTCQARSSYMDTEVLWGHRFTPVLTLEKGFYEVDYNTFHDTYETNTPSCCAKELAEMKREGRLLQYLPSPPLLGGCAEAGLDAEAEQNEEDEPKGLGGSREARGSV
In words: Whole-cell patch clamp, HEK293T cells, Kir3.1/4. The format is cell-based. Also on record: expressed in transfected cells. The note with it: whole-cell patch-clamp HEK-293 cells; read-out: IC50, inhibition of Kir3.1/4. Here is the method: (§1) For the experiments shown in Figure 1, G and H, whole-cell currents were recorded with an Axopatch 200B amplifier and pCLAMP software (Molecular Devices). HEK293T cells were transiently transfected with 1 μg Kir3.1 together with 1 μg Kir3.2 or 1 μg Kir3.4 DNA, using polyethylenimine (PEI). The cells were maintained in DMEM supplemented with 10% Fetal Bovine Serum and 1% Penicillin/Streptomycin at 37 °C in a 5% CO2 humidified atmosphere and were studied 24 to 48 h after transfection. HEK293T cells were bathed in Low K^+ (LK) solution (135 mM NaCl, 5 mM KCl, 1.2 mM MgCl2, 1.5 mM CaCl2, 8 mM Glucose, 10 mM HEPES with pH 7.4). High K^+ (HK) solution (5 mM NaCl, 135 mM KCl, 1.2 mM MgCl2, 1.5 mM CaCl2, 8 mM Glucose, 10 mM HEPES with pH 7.4) was perfused to establish basal currents. BP-G1 in HK solution was perfused sequentially in a concentration response manner prior to applying 5 mM BaCl2 in HK to identify remaining barium-insensitive leak currents and subtract them from the current records. […] Cells used in the experiments were selected based on eGFP fluorescence. A ramp protocol from −80 mV to +80 mV was used and currents were recorded at −80 mV in the whole-cell mode (using the Strathclyde Electrophysiology Software from the University of Strathclyde, Glasgow). The patch-clamp data were analyzed offline in pClamp (Molecular Devices) and OriginLab software. […]
In general terms: In patch-clamp work, channel activity is measured electrically.

The target in data set [5] is T2, Kir3.1/2 channel (UniProt P48542+P48549).
T2 sequence (P48549 1-501): T1 sequence (P48549 1-501)
T2 sequence (P48542 1-425): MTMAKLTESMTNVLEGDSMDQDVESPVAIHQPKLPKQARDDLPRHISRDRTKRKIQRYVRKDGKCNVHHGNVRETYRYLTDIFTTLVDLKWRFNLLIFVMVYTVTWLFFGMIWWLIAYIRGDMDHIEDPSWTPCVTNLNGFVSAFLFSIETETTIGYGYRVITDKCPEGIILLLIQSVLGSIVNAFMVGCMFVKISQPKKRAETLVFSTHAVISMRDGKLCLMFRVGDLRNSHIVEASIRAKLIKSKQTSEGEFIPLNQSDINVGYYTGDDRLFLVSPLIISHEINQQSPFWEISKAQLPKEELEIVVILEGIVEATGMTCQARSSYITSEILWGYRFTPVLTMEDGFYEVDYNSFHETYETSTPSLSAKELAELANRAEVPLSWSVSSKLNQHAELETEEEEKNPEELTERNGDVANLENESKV
In words: Whole-cell patch clamp, HEK293T cells, Kir3.1/2. Details: expressed in transfected cells; host or cells: HEK293T. The format is cell-based, human Kir3.1, mouse Kir3.2. The note with it: whole-cell patch-clamp HEK-293 cells; read-out: IC50, inhibition of Kir3.1/2. Here is the method: as §1

Several values for one entry are separate records, joined by “and”; a condition that tells them apart may be missing. Equal entries are not always repeated.

The Ki is the dissociation constant of the complex between target and ligand, obtained from inhibition or displacement. With `Cc1cc(CO)nc2cc3c(cc12)OC(C)(C)[C@H](O)[C@H]3NCCc1ccccc1` [BP-G1, (3R,4S)-7-(hydroxymethyl)-2,2,9-trimethyl-4-(2-phenylethylamino)-3,4-dihydropyrano[2,3-g]quinolin-3-ol], the “time to reversal of carbachol’s effects on the heart rate” value in data set [1] was no more than 5 min. Besides, the “RR interval 5 min after compound, given about 10 min after carbachol” value in data set [1] (anesthetized mice, mean ± SD, N = 3) came to 155.4 ± 5.5 ms. Further, the fraction unbound in data set [2] was 0.06. In addition, the IC50 is 13000 nM in data set [3]; 10 to 30 nM and 10.5 nM in data set [4]; 10 to 30 nM and 32.2 nM in data set [5]. Also, the “% Specific Binding at 10 µM” value is on record as 55.6% in data set [3] and 55.567% in data set [3] (listed as Benzopyran-G1). Moreover, the inhibition constant (Ki) in data set [3] (read-out: Ki, α1 (non-selective)) turned out to be 3500 nM.
